Data on one compound can be found in patent US8012972B2, “Pyridinecarboxylic acid (2-aminophenyl) amide derivative having urea structure” (Santen Pharmaceutical Co., Ltd., priority 2007, dated 2011).

Assay [1] concerns HDAC (HeLa nuclear extract). Kind of assay: Test for evaluation of HDAC inhibitory activity (HDAC Fluorimetric Assay/Drug Discovery Kit, Biomol). It counts as biochemical. The conditions noted are these: final concentration of test compound 30 μM, rates of more than 100% are shown as 100%. The method, then: Using HDAC Fluorimetric Assay/Drug Discovery Kit (manufactured by Biomol), HDAC inhibitory activity of the present compounds was measured according to the protocol included with the kit. The kit contains Buffer, HeLa nuclear extract (includes HDAC), Substrate, Developer and Trichostatin A (an HDAC inhibitor).
A test compound was dissolved in dimethyl sulfoxide, whereby a 2 mg/mL solution was prepared. Then, the resulting solution was diluted with Buffer containing 5% dimethyl sulfoxide, whereby a 150 μM test compound solution was prepared.
1) To a 384-well culture plate, the test compound solution was added in an amount of 2 μL per well.
2) HeLa nuclear extract was diluted 30-fold with Buffer. The resulting solution was added in an amount of 3 μL per well and then, incubation was performed at 37° C. for 2 hours.
3) Substrate was diluted 500-fold with Buffer. […]
5) The fluorescence intensity of each well was measured using multilabel counter ARVO (manufactured by Wallac) with excitation at 360 nm and emission at 460 nm. […]
Enzyme inhibitory rate (%) was calculated using the following equation. (Enzyme Inhibitory Rate(%))=100×[1−{(Fluorescence Intensity of Test Compound Solution)−(Florescence Intensity of Blank)}/{(Florescence Intensity of Control)−(Florescence Intensity of Blank)}] […]

In assay [2] the test system is human trabecular meshwork cell line (TM-1 cells). Kind of assay: Effect of morphological change on trabecular meshwork cells (cell shape index, CSI). Type of assay: cell-based. As to conditions: final concentration 10 μM, 24 hours, control CSI 0.679, lower CSI indicates greater morphological change. The procedure: As a method for evaluating a cellular morphological change, an evaluation system using the cell shape index (hereinafter referred to as “CSI”) as an index has been reported in The Journal of Clinical Investigation, 103, 1141-1150 (1999). Therefore, according to the method described in the above document, an effect of morphological change of the present compounds on trabecular meshwork cells was evaluated.
A human trabecular meshwork cell line (hereinafter referred to as “TM-1 cells”) reported in Investigative Opthalmology & Visual Science, 43, 151-161 (2002) was used.
Culture medium 1: A reagent was prepared by adding fetal bovine serum (10%), L-glutamine (2 mM), amphotericin B (2.5 μg/mL), and gentamicin (25 μg/mL) to Dulbecco's Modified Eagle Medium (hereinafter referred to as “D-MEM”).
Culture medium 2: Fetal bovine serum (3%), L-glutamine (2 mM), amphotericin B (2.5 μg/mL), and gentamicin (25 μg/mL) were added to D-MEM. […]
10) Using Array Scan Vti HCS reader (manufactured by Cellomics), images of stained cells magnified with a 20-fold objective lens were captured in 80 fields (10 fields×8 wells) per test compound addition group.
11) CSI was calculated for each cell and an average value was obtained for each test compound addition group.
CSI was calculated using the following equation. […]

Structures are written as SMILES.

As for `Nc1ccccc1NC(=O)c1ccc(CN(CCCN2CCCCC2)C(=O)NCCc2ccccc2)cn1` [Compound 1-3], in assay [1], the “Enzyme Inhibitory Rate (%)” value came out at 100%. In assay [2], this compound yielded a CSI of 0.569.
